Source: publication PMC2991631 (Biochemical pharmacology, 2010)
Where two headings read alike, the source gives them in different places.

Experiments:
[1] = test system: carboxylesterases (CE) in human liver microsomal extracts; experiment: CE activity; format: biochemical; conditions: 10μM benzil
[2] = test system: carboxylesterases (hiCE, hCE1) in human liver microsomal extracts; format: biochemical; conditions: 10μM benzil
[3] = liver microsomal extracts, typical

O=C(C(=O)c1ccccc1)c1ccccc1 [benzil]
CE activity + benzil ([1]; liver microsomal extract HG03): 640 ± 97 nmol/mg/min | Loss in CE activity + benzil ([1]; liver microsomal extract HG03): 5935 nmol/mg/min | Loss in CE activity + benzil [%] ([1]; liver microsomal extract HG03): 90.3% | CE activity + benzil ([1]; liver microsomal extract HG74): 854 ± 97 nmol/mg/min | Loss in CE activity + benzil ([1]; liver microsomal extract HG74): 6353 nmol/mg/min | Loss in CE activity + benzil [%] ([1]; liver microsomal extract HG74): 88.2% | CE activity + benzil ([1]; liver microsomal extract HG93): 521 ± 86 nmol/mg/min | Loss in CE activity + benzil ([1]; liver microsomal extract HG93): 4207 nmol/mg/min | Loss in CE activity + benzil [%] ([1]; liver microsomal extract HG93): 89.0% | CE activity + benzil ([1]; liver microsomal extract HG95): 469 ± 45 nmol/mg/min | Loss in CE activity + benzil ([1]; liver microsomal extract HG95): 4656 nmol/mg/min | Loss in CE activity + benzil [%] ([1]; liver microsomal extract HG95): 90.9% | CE activity + benzil ([1]; liver microsomal extract HG103): 448 ± 25 nmol/mg/min | Loss in CE activity + benzil ([1]; liver microsomal extract HG103): 3258 nmol/mg/min | Loss in CE activity + benzil [%] ([1]; liver microsomal extract HG103): 87.9% | CE activity + benzil ([1]; liver microsomal extract HH13): 389 ± 41 nmol/mg/min | Loss in CE activity + benzil ([1]; liver microsomal extract HH13): 504 nmol/mg/min | Loss in CE activity + benzil [%] ([1]; liver microsomal extract HH13): 56.4% | CE activity + benzil ([1]; liver microsomal extract HH61): 406 ± 21 nmol/mg/min | Loss in CE activity + benzil ([1]; liver microsomal extract HH61): 5472 nmol/mg/min | Loss in CE activity + benzil [%] ([1]; liver microsomal extract HH61): 93.1% | CE activity + benzil ([1]; liver microsomal extract HH74): 377 ± 7.8 nmol/mg/min | Loss in CE activity + benzil ([1]; liver microsomal extract HH74): 3329 nmol/mg/min | Loss in CE activity + benzil [%] ([1]; liver microsomal extract HH74): 89.8% | CE activity + benzil ([1]; liver microsomal extract HK37): 476 ± 58 nmol/mg/min | Loss in CE activity + benzil ([1]; liver microsomal extract HK37): 5856 nmol/mg/min | Loss in CE activity + benzil [%] ([1]; liver microsomal extract HK37): 92.5% | CE activity + benzil ([1]; liver microsomal extract SD003): 439 ± 42 nmol/mg/min | Loss in CE activity + benzil ([1]; liver microsomal extract SD003): 4804 nmol/mg/min | Loss in CE activity + benzil [%] ([1]; liver microsomal extract SD003): 91.6% | CE activity + benzil ([1]; liver microsomal extract SD004): 552 ± 35 nmol/mg/min | Loss in CE activity + benzil ([1]; liver microsomal extract SD004): 5070 nmol/mg/min | Loss in CE activity + benzil [%] ([1]; liver microsomal extract SD004): 90.2% | CE activity + benzil ([1]; liver microsomal extract SD104): 507 ± 48 nmol/mg/min | Loss in CE activity + benzil ([1]; liver microsomal extract SD104): 4881 nmol/mg/min | Loss in CE activity + benzil [%] ([1]; liver microsomal extract SD104): 90.6% | CE activity + benzil ([1]; liver microsomal extract SD120): 367 ± 27 nmol/mg/min | Loss in CE activity + benzil ([1]; liver microsomal extract SD120): 4128 nmol/mg/min | Loss in CE activity + benzil [%] ([1]; liver microsomal extract SD120): 91.8% | CE activity + benzil ([1]; liver microsomal extract SD123): 544 ± 29 nmol/mg/min | Loss in CE activity + benzil ([1]; liver microsomal extract SD123): 5401 nmol/mg/min | Loss in CE activity + benzil [%] ([1]; liver microsomal extract SD123): 90.9% | CE activity + benzil ([1]; liver microsomal extract SD124): 268 ± 11 nmol/mg/min | Loss in CE activity + benzil ([1]; liver microsomal extract SD124): 3140 nmol/mg/min | Loss in CE activity + benzil [%] ([1]; liver microsomal extract SD124): 92.1% | CE activity + benzil ([1]; liver microsomal extract SD128): 713 ± 2.7 nmol/mg/min | Loss in CE activity + benzil ([1]; liver microsomal extract SD128): 5600 nmol/mg/min | Loss in CE activity + benzil [%] ([1]; liver microsomal extract SD128): 88.7% | CE activity + benzil ([1]; liver microsomal extract SD132): 935 ± 79 nmol/mg/min | Loss in CE activity + benzil ([1]; liver microsomal extract SD132): 7259 nmol/mg/min | Loss in CE activity + benzil [%] ([1]; liver microsomal extract SD132): 88.6% | CE activity + benzil ([1]; liver microsomal extract SD134): 322 ± 43 nmol/mg/min | Loss in CE activity + benzil ([1]; liver microsomal extract SD134): 220 nmol/mg/min | Loss in CE activity + benzil [%] ([1]; liver microsomal extract SD134): 40.6% | CE activity + benzil ([1]; liver microsomal extract SD136): 314 ± 35 nmol/mg/min | Loss in CE activity + benzil ([1]; liver microsomal extract SD136): 2882 nmol/mg/min | Loss in CE activity + benzil [%] ([1]; liver microsomal extract SD136): 90.1% | reduction of CE activity [1, 3]: 80–90% | CPT-11 hydrolysis + benzil ([2]; liver microsomal extract HG03): 6.62 ± 0.16 pmol/mg/h | Loss in CPT-11 hydrolysis + benzil ([2]; liver microsomal extract HG03): 37.6 pmol/mg/h | Loss in CPT-11 hydrolysis + benzil [%] ([2]; liver microsomal extract HG03): 85% | CPT-11 hydrolysis + benzil ([2]; liver microsomal extract HG74): 6.25 ± 0.13 pmol/mg/h | Loss in CPT-11 hydrolysis + benzil ([2]; liver microsomal extract HG74): 33.6 pmol/mg/h | Loss in CPT-11 hydrolysis + benzil [%] ([2]; liver microsomal extract HG74): 84.3% | CPT-11 hydrolysis + benzil ([2]; liver microsomal extract HG93): 4.58 ± 0.10 pmol/mg/h | Loss in CPT-11 hydrolysis + benzil ([2]; liver microsomal extract HG93): 26.0 pmol/mg/h | Loss in CPT-11 hydrolysis + benzil [%] ([2]; liver microsomal extract HG93): 85.0% | CPT-11 hydrolysis + benzil ([2]; liver microsomal extract HG95): 5.39 ± 0.09 pmol/mg/h | Loss in CPT-11 hydrolysis + benzil ([2]; liver microsomal extract HG95): 19.1 pmol/mg/h | Loss in CPT-11 hydrolysis + benzil [%] ([2]; liver microsomal extract HG95): 78.0% | CPT-11 hydrolysis + benzil ([2]; liver microsomal extract HG103): 4.22 ± 0.10 pmol/mg/h | Loss in CPT-11 hydrolysis + benzil ([2]; liver microsomal extract HG103): 28.3 pmol/mg/h | Loss in CPT-11 hydrolysis + benzil [%] ([2]; liver microsomal extract HG103): 87.0% | CPT-11 hydrolysis + benzil ([2]; liver microsomal extract HH13): 3.94 ± 0.12 pmol/mg/h | Loss in CPT-11 hydrolysis + benzil ([2]; liver microsomal extract HH13): 30.0 pmol/mg/h | Loss in CPT-11 hydrolysis + benzil [%] ([2]; liver microsomal extract HH13): 88.4% | CPT-11 hydrolysis + benzil ([2]; liver microsomal extract HH61): 2.80 ± 0.007 pmol/mg/h | Loss in CPT-11 hydrolysis + benzil ([2]; liver microsomal extract HH61): 19.4 pmol/mg/h | Loss in CPT-11 hydrolysis + benzil [%] ([2]; liver microsomal extract HH61): 87.4% | CPT-11 hydrolysis + benzil ([2]; liver microsomal extract HH74): 2.49 ± 0.04 pmol/mg/h | Loss in CPT-11 hydrolysis + benzil ([2]; liver microsomal extract HH74): 12.9 pmol/mg/h | Loss in CPT-11 hydrolysis + benzil [%] ([2]; liver microsomal extract HH74): 83.8% | CPT-11 hydrolysis + benzil ([2]; liver microsomal extract HK37): 4.31 ± 0.02 pmol/mg/h | Loss in CPT-11 hydrolysis + benzil ([2]; liver microsomal extract HK37): 31.0 pmol/mg/h | Loss in CPT-11 hydrolysis + benzil [%] ([2]; liver microsomal extract HK37): 87.8% | CPT-11 hydrolysis + benzil ([2]; liver microsomal extract SD003): 8.00 ± 0.01 pmol/mg/h | Loss in CPT-11 hydrolysis + benzil ([2]; liver microsomal extract SD003): 46.6 pmol/mg/h | Loss in CPT-11 hydrolysis + benzil [%] ([2]; liver microsomal extract SD003): 85.4% | CPT-11 hydrolysis + benzil ([2]; liver microsomal extract SD004): 4.38 ± 0.07 pmol/mg/h | Loss in CPT-11 hydrolysis + benzil ([2]; liver microsomal extract SD004): 29.5 pmol/mg/h | Loss in CPT-11 hydrolysis + benzil [%] ([2]; liver microsomal extract SD004): 87.1% | CPT-11 hydrolysis + benzil ([2]; liver microsomal extract SD104): 3.89 ± 0.32 pmol/mg/h | Loss in CPT-11 hydrolysis + benzil ([2]; liver microsomal extract SD104): 15.6 pmol/mg/h | Loss in CPT-11 hydrolysis + benzil [%] ([2]; liver microsomal extract SD104): 80.0% | CPT-11 hydrolysis + benzil ([2]; liver microsomal extract SD120): 6.00 ± 0.20 pmol/mg/h | Loss in CPT-11 hydrolysis + benzil ([2]; liver microsomal extract SD120): 37.8 pmol/mg/h | Loss in CPT-11 hydrolysis + benzil [%] ([2]; liver microsomal extract SD120): 86.4% | CPT-11 hydrolysis + benzil ([2]; liver microsomal extract SD123): 4.00 ± 0.09 pmol/mg/h | CPT-11 hydrolysis + benzil ([2]; liver microsomal extract SD124): 5.04 ± 0.09 pmol/mg/h | Loss in CPT-11 hydrolysis + benzil ([2]; liver microsomal extract SD124): 22.1 pmol/mg/h | Loss in CPT-11 hydrolysis + benzil [%] ([2]; liver microsomal extract SD124): 81.4% | CPT-11 hydrolysis + benzil ([2]; liver microsomal extract SD128): 4.03 ± 0.01 pmol/mg/h | Loss in CPT-11 hydrolysis + benzil ([2]; liver microsomal extract SD128): 25.5 pmol/mg/h | Loss in CPT-11 hydrolysis + benzil [%] ([2]; liver microsomal extract SD128): 86.4% | CPT-11 hydrolysis + benzil ([2]; liver microsomal extract SD132): 4.30 ± 0.01 pmol/mg/h | Loss in CPT-11 hydrolysis + benzil ([2]; liver microsomal extract SD132): 22.3 pmol/mg/h | Loss in CPT-11 hydrolysis + benzil [%] ([2]; liver microsomal extract SD132): 83.9% | CPT-11 hydrolysis + benzil ([2]; liver microsomal extract SD134): 2.57 ± 0.03 pmol/mg/h | Loss in CPT-11 hydrolysis + benzil ([2]; liver microsomal extract SD134): 14.9 pmol/mg/h | Loss in CPT-11 hydrolysis + benzil [%] ([2]; liver microsomal extract SD134): 85.3% | CPT-11 hydrolysis + benzil ([2]; liver microsomal extract SD136): 7.76 ± 0.18 pmol/mg/h | Loss in CPT-11 hydrolysis + benzil ([2]; liver microsomal extract SD136): 47.6 pmol/mg/h | Loss in CPT-11 hydrolysis + benzil [%] ([2]; liver microsomal extract SD136): 86.0% | reduction of yields of SN-38 produced [2, 3]: 80–90%
